US8426649B2, “Cyclopropenones and the photochemical generation of cyclic alkynes therefrom” (University of Georgia Research Foundation, Inc., priority 2009, dated 2013)
Like-named read-outs stand apart in the source and are kept apart here.

How the values were obtained:
[1] = literature values (Baskin 2007; Ning/Boons 2008), cited from earlier work
Jurkat cells [2] = assay: Cell surface labeling detected by fluorescence intensity of cell lysates (avidin-FITC); type: cell-based, Human; details: for Incubation time at which labeling was reaching completion: time course
Description: Having established that light activation of cyclopropenones results in the clean formation of the corresponding dibenzocyclooctynes, which can undergo cycloadditions with azides (e.g., metal-free cycloadditions in preferred embodiments) to give corresponding triazoles, attention was focused on labeling living cell modified with azido groups. Thus, Jurkat cells were cultured in the presence of […] of peracetylated N-azidoacetylmannosamine (Ac4ManNAz) for 3 days to metabolically introduce N-azidoacetyl-sialic acid (SiaNAz) groups into glycoproteins and glycolipids. As a negative control, Jurkat cells were employed that were grown in the presence of peracetylated N-acetylmannosamine (Ac4ManNAc). The cells were exposed to 30 micromolar of compound 4b, 5b, and 6b for 1 hour at room temperature. In addition, cells and cyclopropenone 5b were exposed to light (350 nm) for 1 minute to form in-situ cyclooctyne 6b and then incubated for 1 hour at room temperature. Next, the cells were washed and stained with avidin-fluorescein isothiocyanate (FITC) for 15 minutes at 4° C. The efficiency of the two-step cell surface labeling was determined by measuring the fluorescence intensity of the cell lysates.
Jurkat cells were cultured in the presence of […] of peracetylated N-azidoacetylmannosamine (Ac4ManNAz) for 3 days to metabolically introduce N-azidoacetyl-sialic acid (SiaNAz) groups into glycoproteins. As a negative control, Jurkat cells were employed that were grown in the presence of peracetylated N-acetylmannosamine (Ac4ManNAc). The cells were exposed to 30 micromoles of compound 4b, 5b, and 6b for 1 hour at 37° C. In addition, cells and cyclopropenone 5b were exposed to light (350 nm) for 1 minute to form in-situ cyclooctyne 6b and then incubated for 1 hour at 37° C. Next, the cells were washed and stained with avidin-fluorescein isothiocyanate (FITC) for 15 minutes at 4° C. and the efficiency of the two-step cell surface labeling was determined by measuring the fluorescence intensity of the cell lysates.
Jurkat cells were seeded at a density of 75,000 cells mL^−1 in a total volume of 40 mL culture medium in the presence of peracetylated N-azidoacetylmannosamine (Ac4ManNaz; 25 micromolar final concentration) and grown for 3 days, leading to the metabolic incorporation of the corresponding N-azidoacetyl sialic acid (SiaNAz) into their cell surface glycoproteins. Control cells were grown in the presence of peracetylated N-acetylmannosamine (Ac4ManNac; 25 micromolar final concentration) for 3 days. Similarly, CHO cells were grown for 3 days in the presence of Ac4ManNaz (100 micromolar final concentration) or Ac4ManNac (100 micromolar final concentration).
Jurkat cells bearing azides and control cells were washed with labeling buffer (DPBS, pH 7.4 containing 1% FBS and 1% BSA), transferred to round bottom tubes (1×10^6 cells/sample) and incubated with the biotinylated compounds 4b, 5b, or 6b (0-100 micromolar) in labeling buffer for 0-90 minutes at room temperature. To activate 5b in situ, immediately after adding the compound to the cells, the cell suspension was subjected to UV light (350 nm) for 1 minute. The cells were washed three times with cold labeling buffer and then incubated with avidin conjugated with fluorescein (0.5 microgram/ml; Molecular Probes) for 15 minutes at 4° C. Following three washes and cell lysis in passive lysis buffer (Promega), cell lysates were analysed for fluorescence intensity (485 ex/520 em) using a microplate reader (BMG Labtech). Data points were collected in triplicate and are representative of three separate experiments. Fluorescence of Jurkat cell lysates was expressed as fluorescence (arbitrary units; AU) per 800,000 cells.

Jurkat cells [3] = assay: Western blot analysis of cell surface labeling; type: cell-based, Human; details: 30 micromolar, 1 hour; 5b in-situ activated
Description: To identify the nature of the azide-labeled Jurkat glycoconjugates, cell lysates were analyzed by Western blot analysis (FIG. 8). Jurkat cells grown for 3 days in the presence of Ac4ManNAc or Ac4ManNAz were incubated with compounds in-situ activated 5b or 6b (30 micromolar) and then lysed. The Western blot was probed with an anti-biotin antibody conjugated to horseradish peroxidase (HRP). […] Furthermore, similar patterns of labeling were apparent after incubation with in-situ activated 5b and 6b.
Jurkat cells were harvested by centrifugation (5 minutes at 1,400 rpm) and resuspended as 5×10^6 cells/mL. The cell suspensions (250 microliters per sample) were incubated with biotin-conjugated alkynes 4b, 5b, and 6b (30 micromolar) or without compound as control for 1 hour. To activate 5b in situ, immediately after adding the compound to the cells, the cell suspension was subjected to UV light (350 nm) for 1 minute. The cells were washed (4×10 minutes) with cold DPBS, pH 7.4 containing FBS (1%) and lysed in passive lysis buffer. The cell lysates were clarified by centrifugation at 15,000 rpm for 15 minutes and the total protein content of the clear supernatants was assessed using the bicinchonic acid assay (BCA; Pierce Biotechnology). […]

Jurkat cells [4] = assay: Measurement of cytotoxicity (trypan blue exclusion, MTT); type: cell-based, Human
Description: Cell viability was also examined after incubation with 5b with and without light activation followed by reincubation for 5 hours (see Examples). In both cases, the ability of the cells to reduce MTT to its insoluble formazan salt was […].
Cell viability and cell morphology were assessed by exclusion of trypan blue followed microscopic evaluation immediately after photoactivation or after reincubation of the labeled cells in cell culture medium for 5 hours or overnight. Viability was measured by quantifying the cellular ability to reduce the water-soluble tetrazolium dye 3-4,5-dimethylthiazole-2,5-diphenyl tetrazolium bromide (MTT) to its insoluble formazan salt (e.g., Sgouras et al., J. Mater. Sci.: Materials in Medicine 1990, 1:61-68). Data points were collected in triplicate and expressed as normalized values for control cells (100%).

CHO cells = assay: Detection of cell labeling by fluorescence microscopy; type: cell-based, Chinese hamster
Description: Next, attention was focused on visualizing azido-containing glycoconjugates of living cells by confocal microscopy. Thus, adherent Chinese hamster ovary (CHO) cells were cultured in the presence of Ac4ManNAz (100 μM) for three days. The resulting cell surface azido groups were reacted with in situ generated 6b (30 μM) and then visualized with avidin-Alexa fluor 488.
CHO cells bearing azides and untreated control cells were transferred to glass coverslips and cultured for 36 hours in their original medium. Live CHO cells were treated with the biotinylated compound 5b (30 micromolar) in labeling buffer (DPBS, supplemented with FBS (1%)) for 1 hour at room temperature. To activate 5b in situ, immediately after adding the compound to the cells, the cells were subjected to UV light (350 nm) for 1 minute. Next, the cells were incubated with avidin conjugated with Alexa Fluor 488 (Molecular Probes) for 15 minutes at 4° C. Cells were washed 3 times with labeling buffer and fixed with formaldehyde (3.7% in PBS). The nucleus was labeled with the far red-fluorescent TO-PRO-3 dye (Molecular Probes). The cells were mounted with PermaFluor (Thermo Electron Corporation) before imaging. Initial analysis was performed on a Zeiss Axioplan2 fluorescent microscope. […] The step size, based on the calculated optimum for each objective, was between 0.25 and 0.5 micrometers. […]

[5] = 30 micromolar, 1 hour, room temperature, cells grown with Ac4ManNAz
[6] = 30 micromoles, 1 hour at 37° C., cells grown with Ac4ManNAz

| SMILES | Reported rate of the reaction of cyclooctynes with benzyl azide [1] [M⁻¹ s⁻¹] | Cell surface labeling (fluorescence intensity of cell lysates) (Jurkat cells [2]; [5]) | Cell surface labeling (fluorescence intensity of cell lysates) (Jurkat cells [2]; [6]) | Incubation time at which labeling was reaching completion (Jurkat cells [2]; 30 micromolar) [min] | Glycoprotein labeling on Western blot (anti-biotin-HRP) (Jurkat cells [3]) | other results |
| --- | --- | --- | --- | --- | --- | --- |
| O=C(O)COC1CCC#CC(F)(F)CC1 (centres unmarked) [2-[(6,6-difluoro-4-cyclooctyn-1-yl)oxy]-acetic acid] | 0.076 |  |  |  |  |  |
| OC1Cc2ccccc2C#Cc2ccccc21 (centres unmarked) [4a, 11,12-didehydro-5,6-dihydro-dibenzo[a,e]cycloocten-5-ol] | 0.17 |  |  |  |  | Reported rate of the reaction of cyclooctynes with benzyl azide ([1]; listed as 11,12-didehydro-5,6-dihydro-dibenzo[a,e]cycloocten-5-ol): 0.0568 M⁻¹ s⁻¹ |
| O=C(CCCC[C@@H]1SC[C@@H]2NC(=O)N[C@@H]21)NCCOCCOCCOCCNC(=O)OC1Cc2ccccc2C#Cc2ccccc21 (stereo partly drawn) [4b, 11,12-didehydro-5,6-dihydrodibenzo[a,e]cycloocten-5-yl ester of 19-[(3aS,4S,6aR)-hexahydro-2-oxo-1H-thieno[3,4-d]imidazol-4-yl]-15-oxo-5,8,11-trioxa-2,14-diazanonadecanoic acid, reference compound] |  | strong labeling | strong labeling | 60 |  |  |
| CCCCOc1ccc2c(c1)CCc1cc(OCCOCCOC(=O)NCCOCCOCCNC(=O)CCCCC3SCC4NC(=O)NC43)ccc1-c1c-2c1=O (centres unmarked) [5b, 2-{2-[(9-Butoxy-1-oxo-6,7-dihydro-1H-dibenzo[a,e]cyclopropa-[c][8]annulen-4-yl)oxy]ethoxy}ethyl {2-[2-(2-{[5-(2-oxohexahydro-1H-thieno[3,4-d]imidazol-4-yl)pentanoyl]amino}ethoxy)ethoxy]ethyl}carbamate] |  |  | strong labeling |  | Significant glycoprotein labeling was only observed in lysates from cells grown in the presence of Ac4ManNAz | Cell surface labeling (fluorescence intensity of cell lysates) (Jurkat cells [2]; in the dark (no activation), 30 micromolar, 1 hour, room temperature): low fluorescence intensities; Cell surface labeling (fluorescence intensity of cell lysates) (Jurkat cells [2]; in the dark (no activation), 1 hour at 37° C.): low fluorescence intensities; Cell surface labeling (fluorescence intensity of cell lysates) (Jurkat cells [2]; in-situ activation, 350 nm 1 minute, then 1 hour at 37° C.): equally efficient cell labeling; Cell surface labeling (fluorescence intensity of cell lysates) (Jurkat cells [2]; in-situ activation, 350 nm 1 minute, then 1 hour at room temperature, 30 micromolar): equally efficient cell labeling; Cell viability and morphology (trypan blue exclusion) (Jurkat cells [4]; 30 micromolar 5b with and without UV light activation (1 minute at 350 nm)): no changes were observed; Ability of the cells to reduce MTT to formazan (Jurkat cells [4]; with and without light activation, reincubation for 5 hours): negligible; Staining (confocal microscopy, avidin-Alexa fluor 488) (CHO cells; in the dark, cells metabolically labeled with ManNAz): negligible staining |
| CCCCOc1ccc2c(c1)CCc1cc(OCCOCCOC(=O)NCCOCCOCCNC(=O)CCCCC3SCC4NC(=O)NC43)ccc1C#C2 (centres unmarked) [6b, 2-{2-[(9-Butoxy-5,6-didehydro-11,12-dihydrodibenzo[a,e][8]annulen-2-yl)oxy]ethoxy}ethyl {2-[2-(2-{[5-(2-oxohexahydro-1H-thieno[3,4-d]imidazol-4-yl)pentanoyl]amino}ethoxy)ethoxy]ethyl}carbamate] |  | strong labeling |  | 60 | Significant glycoprotein labeling was only observed in lysates from cells grown in the presence of Ac4ManNAz | Fluorescent reading compared with 4b (Jurkat cells [2]; at low concentration): somewhat higher fluorescent reading than 4b; Staining of azido-containing glycoconjugates (confocal microscopy, avidin-Alexa fluor 488) (CHO cells; in situ generated, 30 μM, cells grown with Ac4ManNAz 100 μM): staining was only observed at the cell surface |
